Experimental data from patent US12344618B2, “Heterotricyclic derivative compound and use of same” (HANMI PHARMACEUTICAL CO., LTD., priority 2019, dated 2025).

What was measured:
EZH1 = target: T1, EZH1 (Homo sapiens, UniProt Q92800); experiment: Inhibitory activity against EZH1 methyltransferase (radiometric scintillation proximity assay); type: biochemical; conditions: 2.3 nmol/L enzyme, 90 minutes, room temperature;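 also: Read-out is methylation of a substrate peptide, captured on streptavidin-coated SPA beads and counted by scintillation, in Tris-HCl buffer at pH 8.0 with 1% DMSO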
T1 construct: purchased Reaction Biology Corp. (contract assay)
T1 sequence (Q92800 whole entry): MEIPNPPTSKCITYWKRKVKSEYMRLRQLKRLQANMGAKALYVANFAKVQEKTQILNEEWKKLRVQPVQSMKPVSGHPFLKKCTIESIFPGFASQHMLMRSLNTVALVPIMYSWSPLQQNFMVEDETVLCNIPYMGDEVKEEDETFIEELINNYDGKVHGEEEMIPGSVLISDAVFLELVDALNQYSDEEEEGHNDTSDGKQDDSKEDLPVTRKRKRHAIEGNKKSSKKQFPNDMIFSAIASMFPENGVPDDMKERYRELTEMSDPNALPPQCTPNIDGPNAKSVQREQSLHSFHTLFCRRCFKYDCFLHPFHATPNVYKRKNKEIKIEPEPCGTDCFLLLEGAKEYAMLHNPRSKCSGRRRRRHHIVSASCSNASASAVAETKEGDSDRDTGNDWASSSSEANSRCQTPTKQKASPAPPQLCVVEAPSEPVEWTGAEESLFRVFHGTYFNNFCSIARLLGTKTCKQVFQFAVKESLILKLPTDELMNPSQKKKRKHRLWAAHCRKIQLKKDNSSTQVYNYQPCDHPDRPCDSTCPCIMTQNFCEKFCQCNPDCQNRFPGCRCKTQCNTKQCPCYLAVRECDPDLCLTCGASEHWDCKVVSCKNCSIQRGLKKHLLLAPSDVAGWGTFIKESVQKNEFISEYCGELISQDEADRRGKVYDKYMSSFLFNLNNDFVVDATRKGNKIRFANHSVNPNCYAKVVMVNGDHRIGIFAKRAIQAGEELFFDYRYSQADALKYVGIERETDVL
T1 sequence (O75530 whole entry partner): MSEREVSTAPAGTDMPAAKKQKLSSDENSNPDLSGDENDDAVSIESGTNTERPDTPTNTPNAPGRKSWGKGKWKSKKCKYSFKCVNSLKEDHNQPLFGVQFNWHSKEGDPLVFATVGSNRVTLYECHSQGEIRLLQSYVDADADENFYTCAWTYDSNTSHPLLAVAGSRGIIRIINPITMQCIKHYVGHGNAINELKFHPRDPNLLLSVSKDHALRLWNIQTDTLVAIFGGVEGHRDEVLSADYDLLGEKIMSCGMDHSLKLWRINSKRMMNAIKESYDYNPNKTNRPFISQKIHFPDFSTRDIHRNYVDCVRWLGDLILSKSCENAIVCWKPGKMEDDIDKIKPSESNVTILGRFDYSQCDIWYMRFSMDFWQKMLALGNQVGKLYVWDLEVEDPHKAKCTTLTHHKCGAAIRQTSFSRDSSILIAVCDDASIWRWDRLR
T1 sequence (Q15022 whole entry partner): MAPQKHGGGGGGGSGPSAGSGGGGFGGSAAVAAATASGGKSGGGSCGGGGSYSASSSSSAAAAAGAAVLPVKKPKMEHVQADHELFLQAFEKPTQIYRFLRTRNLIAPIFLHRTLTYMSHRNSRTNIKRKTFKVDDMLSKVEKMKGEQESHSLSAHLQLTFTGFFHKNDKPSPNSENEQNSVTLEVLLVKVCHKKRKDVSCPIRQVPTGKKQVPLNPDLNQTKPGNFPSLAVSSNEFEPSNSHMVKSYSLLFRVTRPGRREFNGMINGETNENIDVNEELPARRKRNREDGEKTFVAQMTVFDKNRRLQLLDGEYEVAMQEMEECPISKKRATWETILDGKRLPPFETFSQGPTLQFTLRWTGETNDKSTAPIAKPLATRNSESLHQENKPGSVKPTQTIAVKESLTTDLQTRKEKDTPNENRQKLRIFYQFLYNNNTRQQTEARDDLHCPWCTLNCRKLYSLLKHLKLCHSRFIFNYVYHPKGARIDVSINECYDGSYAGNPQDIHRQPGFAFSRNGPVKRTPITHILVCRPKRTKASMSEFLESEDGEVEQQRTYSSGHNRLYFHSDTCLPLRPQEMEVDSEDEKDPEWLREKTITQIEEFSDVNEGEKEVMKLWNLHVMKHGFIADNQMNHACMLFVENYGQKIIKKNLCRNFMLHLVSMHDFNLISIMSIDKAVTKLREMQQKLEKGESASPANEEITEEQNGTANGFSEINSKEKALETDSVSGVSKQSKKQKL
T1 sequence (Q09028 whole entry partner): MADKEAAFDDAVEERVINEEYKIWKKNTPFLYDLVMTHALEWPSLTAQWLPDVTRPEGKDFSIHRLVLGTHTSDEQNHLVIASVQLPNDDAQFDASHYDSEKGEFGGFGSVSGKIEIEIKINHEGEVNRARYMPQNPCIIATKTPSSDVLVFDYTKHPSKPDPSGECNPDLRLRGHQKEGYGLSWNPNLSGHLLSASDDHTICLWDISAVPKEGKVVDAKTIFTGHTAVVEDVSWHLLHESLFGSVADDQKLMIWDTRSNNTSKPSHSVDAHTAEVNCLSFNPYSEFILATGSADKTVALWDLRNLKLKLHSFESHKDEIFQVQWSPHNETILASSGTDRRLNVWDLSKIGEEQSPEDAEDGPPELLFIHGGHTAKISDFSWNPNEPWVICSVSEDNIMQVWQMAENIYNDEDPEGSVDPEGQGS
T1 sequence (Q6ZN18 whole entry partner): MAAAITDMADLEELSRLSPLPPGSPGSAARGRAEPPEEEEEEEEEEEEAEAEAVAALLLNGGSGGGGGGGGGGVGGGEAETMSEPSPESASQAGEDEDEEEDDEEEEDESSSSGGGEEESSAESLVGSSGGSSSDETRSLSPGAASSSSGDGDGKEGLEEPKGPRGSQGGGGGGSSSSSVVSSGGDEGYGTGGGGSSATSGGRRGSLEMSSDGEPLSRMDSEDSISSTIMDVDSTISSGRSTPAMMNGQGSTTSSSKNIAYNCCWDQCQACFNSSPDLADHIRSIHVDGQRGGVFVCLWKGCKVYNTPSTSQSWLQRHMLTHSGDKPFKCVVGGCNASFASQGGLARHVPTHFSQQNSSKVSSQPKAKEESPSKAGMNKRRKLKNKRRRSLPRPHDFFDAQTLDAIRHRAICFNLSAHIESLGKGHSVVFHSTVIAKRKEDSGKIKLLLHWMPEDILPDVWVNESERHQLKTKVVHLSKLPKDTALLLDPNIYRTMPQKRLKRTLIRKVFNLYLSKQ
Procedure: (§1) The inhibitory activities of the synthetic compounds against EZH1 or EZH2 methyltransferase were measured. The experiment was conducted by Reaction Biology Corp., and the activity of EZH1 or EZH2 was measured using a radiometric scintillation proximity assay. […] The reaction buffer consisted of 50 mmol/L Tris-HCl (pH 8.0), 50 mmol/L NaCl, 1 mmol/L EDTA, 1 mmoL/L DTT, 1 mmol/L PMSF, and 1% DMSO. Trichloroacetic acid was added to terminate the reaction, and PVT streptavidin-coated SPA beads were added to each reaction solution, followed by further reaction at room temperature for 1 hour again. The methylation value of the substrate peptide was measured using the TopCount NXT plate reader.

EZH2 = EZH2 (Homo sapiens, UniProt Q15910); experiment: Inhibitory activity against EZH2 methyltransferase (radiometric scintillation proximity assay); conditions: Enzyme inhibitory activity (IC50, nM) EZH2, 2.3 nmol/L enzyme, 90 minutes, room temperature;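 also: Read-out is substrate peptide methylation, captured on streptavidin-coated SPA beads and counted by scintillation, with the reaction run in Tris-HCl buffer at pH 8.0 containing 1% DMSO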
Sequence of EZH2 (Q15910 whole entry): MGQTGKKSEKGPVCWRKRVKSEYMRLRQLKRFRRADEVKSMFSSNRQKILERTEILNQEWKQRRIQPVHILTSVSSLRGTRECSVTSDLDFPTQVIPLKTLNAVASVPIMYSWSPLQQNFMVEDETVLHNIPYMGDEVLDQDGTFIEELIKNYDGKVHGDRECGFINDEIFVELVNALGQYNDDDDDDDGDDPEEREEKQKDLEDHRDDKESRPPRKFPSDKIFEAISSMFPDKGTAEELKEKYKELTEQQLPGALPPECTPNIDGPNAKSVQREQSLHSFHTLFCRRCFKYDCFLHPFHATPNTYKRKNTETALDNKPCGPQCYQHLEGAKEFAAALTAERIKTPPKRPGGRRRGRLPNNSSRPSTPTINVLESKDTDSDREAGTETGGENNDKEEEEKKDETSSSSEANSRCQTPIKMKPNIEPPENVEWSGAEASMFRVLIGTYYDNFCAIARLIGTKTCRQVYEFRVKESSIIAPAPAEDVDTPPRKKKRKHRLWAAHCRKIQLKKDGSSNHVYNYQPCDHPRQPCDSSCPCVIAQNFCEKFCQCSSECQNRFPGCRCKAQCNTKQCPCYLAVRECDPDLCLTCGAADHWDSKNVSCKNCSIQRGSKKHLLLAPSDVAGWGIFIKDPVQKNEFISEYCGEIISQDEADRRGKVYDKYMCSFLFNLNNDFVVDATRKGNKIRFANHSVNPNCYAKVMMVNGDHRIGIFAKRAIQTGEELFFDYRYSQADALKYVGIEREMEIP
Sequence of EZH2 (O75530 whole entry partner): as the sequence (O75530 whole entry partner) above
Sequence of EZH2 (Q15022 whole entry partner): as the sequence (Q15022 whole entry partner) above
Sequence of EZH2 (Q09028 whole entry partner): as the sequence (Q09028 whole entry partner) above
Sequence of EZH2 (Q6ZN18 whole entry partner): as the sequence (Q6ZN18 whole entry partner) above
Procedure: as §1

[1] = system: KARPAS-422 (EZH2 Y641N mutation); experiment: Cell growth inhibition test, KARPAS-422; type: cell-based; conditions: Homo sapiens, KARPAS-422, 168 h, KARPAS-422, culture time 7 days; read-out: Cell growth inhibitory activity (GI50, nM) KARPAS-422 (EZH2 Y641N mutation)
Procedure: Each type of the cultured cells was seeded in 6-well plates or 48-96 well plates, and subculture or medium replacement was performed every 3 to 4 days. Next, the cells were subcultured for a total of 7 to 14 days, and then seeded in 96-well plates. 3 to 5 days before the measurement of the effect, the cells were seeded in 96-well plates, and then the absorbance (Tz) on the day of seeding was measured. The absorbance after the reaction was measured by the plate reader device Synergy NeoAlpha (Biotek) using Cell-Titer-Glo Cell Viability Assay (Promega, G7573) according to the attached manual. Based on the absorbance (Tz) measured on the seeding day and the absorbance of each of the DMSO-treated group (C) and the sample-added group (Ti) measured on the day of effect determination, the percentage of cell proliferation inhibition was calculated according to the following Equation 1. [(Ti−Tz)/(C−Tz)]×100 for concentrations for which Ti≥Tz […] for concentrations for which Ti<Tz. [Equation 1]

| SMILES | IC50 (EZH1) | IC50 (EZH2) | GI50 [1] |
| --- | --- | --- | --- |
| Cc1cc(C)c(CN2CCc3cc4c(c(C)c3C2=O)OC(C)([C@H]2CC[C@H](N(C)C)CC2)O4)c(=O)[nH]1 (stereo partly drawn) [Compound 1, 6-((4,6-dimethyl-2-oxo-1,2-dihydropyridin-3-yl)methyl)-2(trans-4-(dimethylamino)cyclohexyl)-2,4-dimethyl-7,8-dihydro-[1,3]dioxolo[4,5-g]isoquinolin-5(6H)-one] | 97.6 nM | 14.3 nM | – |
| Cc1cc(C)c(CN2CCc3cc4c(cc3C2=O)OC(C)([C@H]2CC[C@H](N(C)C)CC2)O4)c(=O)[nH]1 (stereo partly drawn) [Compound 2, 6-((4,6-dimethyl-2-oxo-1,2-dihydropyridin-3-yl)methyl)-2(trans-4-(dimethylamino)cyclohexyl)-2-methyl-7,8-dihydro-[1,3]dioxolo[4,5-g]isoquinolin-5(6H)-one] | 371 nM | 7.9 nM | – |
| Cc1cc(C)c(CN2CCc3c(Cl)c4c(c(Cl)c3C2=O)OC(C)([C@H]2CC[C@H](N(C)C)CC2)O4)c(=O)[nH]1 (stereo partly drawn) [Compound 7, 4,9-dichloro-6-((4,6-dimethyl-2-oxo-1,2-dihydropyridin-3-yl)methyl)-2-(trans-4-(dimethylamino)cyclohexyl)-2-methyl-7,8-dihydro-[1,3]dioxolo[4,5-g]isoquinolin-5(6H)-one] | 54 nM | 3.8 nM | 4.8 nM |
| CCCc1cc(C)[nH]c(=O)c1CN1CCc2c(Cl)c3c(c(C)c2C1=O)OC(C)([C@H]1CC[C@H](N(C)C)CC1)O3 (stereo partly drawn) [Compound 14, 9-chloro-2-(trans-4-(dimethylamino)cyclohexyl)-2,4-dimethyl-6-((6-methyl-2-oxo-4-propyl-1,2-dihydropyridin-3-yl)methyl)-7,8-dihydro-[1,3]dioxolo[4,5-g]isoquinolin-5(6H)-one] | 27 nM | 3.2 nM | 50 nM |
| CCN(CC)[C@H]1CC[C@H](C2(C)Oc3c(C)c4c(c(Cl)c3O2)CCN(Cc2c(C)cc(C)[nH]c2=O)C4=O)CC1 (stereo partly drawn) [Compound 16, 9-chloro-2-(trans-4-(diethylamino)cyclohexyl)-6-((4,6-dimethyl-2-oxo-1,2-dihydropyridin-3-yl)methyl)-2,4-dimethyl-7,8-dihydro-[1,3]dioxolo[4,5-g]isoquinolin-5(6H)-one] | 89 nM | 11 nM | 68 nM |
| Cc1cc(C)c(CN2CCc3c(Cl)c4c(c(C)c3C2=O)OC(C)([C@H]2CC[C@H](N3CCCCC3)CC2)O4)c(=O)[nH]1 (stereo partly drawn) [Compound 17, 9-chloro-6-((4,6-dimethyl-2-oxo-1,2-dihydropyridin-3-yl)methyl)-2,4-dimethyl-2-(trans-4-(piperidin-1-yl)cyclohexyl)-7,8-dihydro-[1,3]dioxolo[4,5-g]isoquinolin-5(6H)-one] | 74 nM | 5.6 nM | 52 nM |
| Cc1cc(C)c(CN2CCc3c(Cl)c4c(c(C)c3C2=O)OC(C)([C@H]2CC[C@H](N3CCCC3)CC2)O4)c(=O)[nH]1 (stereo partly drawn) [Compound 18, 9-chloro-6-((4,6-dimethyl-2-oxo-1,2-dihydropyridin-3-yl)methyl)-2,4-dimethyl-2-(trans-4-(pyrrolidin-1-yl)cyclohexyl)-7,8-dihydro-[1,3]dioxolo[4,5-g]isoquinolin-5(6H)-one] | 47 nM | 4.3 nM | 16 nM |
| Cc1cc(C)c(CN2CCc3c(Cl)c4c(c(C)c3C2=O)OC(C)(C[C@H]2CC[C@H](N)CC2)O4)c(=O)[nH]1 (stereo partly shown) [Compound 20] | 48 nM | 3.7 nM | 18 nM |
| Cc1cc(C)c(CN2CCc3c(C)c4c(c(C)c3C2=O)OC(C)([C@H]2CC[C@H](N)CC2)O4)c(=O)[nH]1 (stereo partly drawn) [Compound 38, 2-(trans-4-aminocyclohexyl)-6-((4,6-dimethyl-2-oxo-1,2-dihydropyridin-3-yl)methyl)-2,4,9-trimethyl-7,8-dihydro-[1,3]dioxolo[4,5-g]isoquinolin-5(6H)-one] | 54 nM | 4.4 nM | – |
| Cc1cc(C)c(CN2CCc3c(C)c4c(c(C)c3C2=O)OC(C)(C2CCCCC2)O4)c(=O)[nH]1 (stereo not shown) [Compound 44, 2-cyclohexyl-6-((4,6-dimethyl-2-oxo-1,2-dihydropyridin-3-yl)methyl)-2,4,9-trimethyl-7,8-dihydro-[1,3]dioxolo[4,5-g]isoquinolin-5(6H)-one] | 34 nM | 0.4 nM | – |
| CCN[C@H]1CC[C@H](C2(C)Oc3c(C)c4c(c(C)c3O2)C(=O)N(Cc2c(OC)cc(C)[nH]c2=O)CC4)CC1 (stereo partly drawn) [Compound 45, 2-(trans-4-(ethylamino)cyclohexyl)-6-((4-methoxy-6-methyl-2-oxo-1,2-dihydropyridin-3-yl)methyl)-2,4,9-trimethyl-7,8-dihydro-[1,3]dioxolo[4,5-g]isoquinolin-5(6H)-one] | 18 nM | 6.2 nM | – |
| CCN(CC)[C@H]1CC[C@H](C2(C)Oc3c(C)c4c(c(C)c3O2)C(=O)N(Cc2c(OC)cc(C)[nH]c2=O)CC4)CC1 (stereo partly drawn) [Compound 46, 2-(trans-4-(diethylamino)cyclohexyl)-6-((4-methoxy-6-methyl-2-oxo-1,2-dihydropyridin-3-yl)methyl)-2,4,9-trimethyl-7,8-dihydro-[1,3]dioxolo[4,5-g]isoquinolin-5(6H)-one] | 16 nM | 9.7 nM | – |
| CCN(C)[C@H]1CC[C@H](C2(C)Oc3c(C)c4c(c(C)c3O2)C(=O)N(Cc2c(OC)cc(C)[nH]c2=O)CC4)CC1 (stereo partly shown) [Compound 47] | 20 nM | 7 nM | – |
| Cc1cc(C)c(CN2CCc3c(c(C)c4c(c3-c3ccc(CN5CCOCC5)cc3)OC(C)([C@H]3CC[C@H](N(C)C)CC3)O4)C2=O)c(=O)[nH]1 (stereo partly drawn) [Compound 55, 6-((4,6-dimethyl-2-oxo-1,2-dihydropyridin-3-yl)methyl)-2-(trans-4-(dimethylamino)cyclohexyl)-2,4-dimethyl-9-(4-(morpholinomethyl)phenyl)-7,8-dihydro-[1,3]dioxolo[4,5-g]isoquinolin-5(6H)-one] | 26 nM | 5.6 nM | – |

More lines, now with the values ahead:

| IC50 (EZH1) | IC50 (EZH2) | GI50 [1] | SMILES |
| --- | --- | --- | --- |
| 65 nM | 3.6 nM | 18 nM | CCN[C@H]1CC[C@H](C2(C)Oc3c(C)c4c(c(Cl)c3O2)CCN(Cc2c(C)cc(C)[nH]c2=O)C4=O)CC1 (stereo partly drawn) [Compound 15, 9-chloro-6-((4,6-dimethyl-2-oxo-1,2-dihydropyridin-3-yl)methyl)-2-(trans-4-(ethylamino)cyclohexyl)-2,4-dimethyl-7,8-dihydro-[1,3]dioxolo[4,5-g]isoquinolin-5(6H)-one] |
| 137 nM | 7.2 nM | 75 nM | Cc1cc(C)c(CN2CCc3c(Cl)c4c(c(C)c3C2=O)OC(C)(C[C@H]2CC[C@H](N(C)C)CC2)O4)c(=O)[nH]1 (stereo partly drawn) [Compound 21, 9-chloro-6-((4,6-dimethyl-2-oxo-1,2-dihydropyridin-3-yl)methyl)-2-((trans-4-(dimethylamino)cyclohexyl)methyl)-2,4-dimethyl-7,8-dihydro-[1,3]dioxolo[4,5-g]isoquinolin-5(6H)-one] |
| 180 nM | 16 nM | > 1000 nM | Cc1cc(C)c(CN2CCc3c(Cl)c4c(c(C)c3C2=O)OC(C)(C2CCCCC2)O4)c(=O)[nH]1 (stereo not shown) [Compound 22, 9-chloro-2-cyclohexyl-6-((4,6-dimethyl-2-oxo-1,2-dihydropyridin-3-yl)methyl)-2,4-dimethyl-7,8-dihydro-[1,3]dioxolo[4,5-g]isoquinolin-5(6H)-one] |
| – | 4.4 nM | > 1000 nM | Cc1cc(C)c(CN2CCc3c(Cl)c4c(c(C)c3C2=O)OC(C)(C2CCCC2)O4)c(=O)[nH]1 (stereo not shown) [Compound 23, 9-chloro-2-cyclopentyl-6-((4,6-dimethyl-2-oxo-1,2-dihydropyridin-3-yl)methyl)-2,4-dimethyl-7,8-dihydro-[1,3]dioxolo[4,5-g]isoquinolin-5(6H)-one] |
| 34 nM | 3 nM | 62 nM | Cc1cc(C)c(CN2CCc3c(Cl)c4c(c(C)c3C2=O)OC(C)(C2CCOCC2)O4)c(=O)[nH]1 (stereo not shown) [Compound 24, 9-chloro-6-((4,6-dimethyl-2-oxo-1,2-dihydropyridin-3-yl)methyl)-2,4-dimethyl-2-(tetrahydro-2H-pyran-4-yl)-7,8-dihydro-[1,3]dioxolo[4,5-g]isoquinolin-5(6H)-one] |
| 166 nM | 11 nM | – | Cc1cc(C)c(CN2CCc3c(Cl)c4c(c(C)c3C2=O)OC(C)(c2ccc(N(C)C)cc2)O4)c(=O)[nH]1 (stereo not shown) [Compound 25, 9-chloro-6-((4,6-dimethyl-2-oxo-1,2-dihydropyridin-3-yl)methyl)-2-(4-(dimethylamino)phenyl)-2,4-dimethyl-7,8-dihydro-[1,3]dioxolo[4,5-g]isoquinolin-5(6H)-one] |
| 85 nM | 6.2 nM | 99 nM | Cc1cc(C)c(CN2CCc3c(Cl)c4c(c(C)c3C2=O)OC(C)(CCCCN(C)C)O4)c(=O)[nH]1 (stereo not shown) [Compound 26, 9-chloro-6-((4,6-dimethyl-2-oxo-1,2-dihydropyridin-3-yl)methyl)-2-(4-(dimethylamino)butyl)-2,4-dimethyl-7,8-dihydro-[1,3]dioxolo[4,5-g]isoquinolin-5(6H)-one] |
| 310 nM | 3.9 nM | – | Cc1cc(C)c(CN2CCc3c(Cl)c4c(c(C)c3C2=O)OC(C)(c2c(C)noc2C)O4)c(=O)[nH]1 (stereo not shown) [Compound 27] |
